Laboratory results from patent US6274348A, “Methods for the preparation of positively charged proteins” (XOMA Corporation, priority 1997, dated 2001).

How the values were obtained:
[1] = target: T1, rBPI(1-191)-IgG fusion protein (human BPI residues 1-191 fused to human IgG1 heavy chain hinge-CH2-CH3) (Homo sapiens, UniProt P01857+P17213); assay: direct 3H-heparin binding assay; conditions: highest 3H heparin concentration tested 2.5 μM; protein at 100 pmol/well, one hour at 4° C.
T1 construct: an rBPI(1-191)-IgG fusion protein was added to the wells of a 96-well plate; made in house; host or cells: CHO-DG44
T1 sequence (P17213+P01857 fused): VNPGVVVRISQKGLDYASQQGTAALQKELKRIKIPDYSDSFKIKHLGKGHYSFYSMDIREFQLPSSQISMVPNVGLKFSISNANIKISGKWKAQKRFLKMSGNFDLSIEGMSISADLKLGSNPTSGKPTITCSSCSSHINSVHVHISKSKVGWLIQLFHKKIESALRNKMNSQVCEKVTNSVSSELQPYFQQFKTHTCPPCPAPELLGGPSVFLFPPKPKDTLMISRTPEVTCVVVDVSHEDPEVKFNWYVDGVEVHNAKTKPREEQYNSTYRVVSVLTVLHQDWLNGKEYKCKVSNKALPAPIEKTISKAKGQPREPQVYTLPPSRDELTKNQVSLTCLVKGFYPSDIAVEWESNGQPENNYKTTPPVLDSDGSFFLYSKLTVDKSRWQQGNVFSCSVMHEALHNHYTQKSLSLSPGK
Text: (§1) A direct ^3 H-heparin binding assay was utilized to analyze the comparative binding of rBPI(1-199) and rBPI-Ig fusions to heparin. The assay was based on the ability of a derivatized nylon membrane to bind proteins with high capacity. Such a membrane has been incorporated into the bottom of 96-well microtiter plates by Millipore Corp. (Bedford Mass.) (MULTISCREEN IP plates) and may be punched out of each well for scintillation counting.
(§2) To conduct the assay, rBPI(1-199) or an rBPI(1-191)-IgG fusion protein was added to the wells of a 96-well plate at a concentration of 100 pmol/well diluted with phosphate buffered saline (PBS), pH 7.4 nylon membrane. Upon absorption to the membrane, the wells were blocked with a blocking buffer comprising 0.1% bovine serum albumin (BSA) in PBS. Serial dilutions of ^3 H heparin (DuPont, NEN, Wilmington, Del.) were made from 4-5 μg/ml in the blocking buffer and incubated in the wells coated with either rBPI(1-199) and rBPI(1-191)-IgG for one hour at 4° C. After one hour, unbound heparin was aspirated and the wells were washed three times with blocking buffer, dried, and removed for quantitation of bound ^3 H-heparin by liquid scintillation counting.

[2] = target: T2, rBPI(1-199), first 199 N-terminal amino acids of mature human BPI (SEQ ID NOS: 1 and 2) (Homo sapiens, UniProt P17213); assay: direct 3H-heparin binding assay; conditions: protein adsorbed to nylon membrane at 100 pmol/well, 3H heparin dilutions, one hour at 4° C., PBS pH 7.4 with 0.1% BSA; read-out: apparent affinity (Kd) for heparin
T2 construct: made in house
T2 sequence (P17213 32-230): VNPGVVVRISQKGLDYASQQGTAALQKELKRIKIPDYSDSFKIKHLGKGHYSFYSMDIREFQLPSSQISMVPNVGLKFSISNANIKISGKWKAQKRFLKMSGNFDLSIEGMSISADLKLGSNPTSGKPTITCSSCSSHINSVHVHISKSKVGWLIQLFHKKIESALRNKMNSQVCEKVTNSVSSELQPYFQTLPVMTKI
Text: as §1, §2

saturation of 3H heparin binding [1]: did not reach saturation
Kd [2]: 114 ± 30 nM
Substance: heparin
